In PMC11356571, “The Comparative Metabolism of a Novel Hepatocellular Carcinoma Therapeutic Agent, 2,3-Diamino-N-(4-(benzo[d]thiazol-2-yl)phenyl)propanamide, in Human and Animal Hepatocytes” (Metabolites, 2024):

Tests used:
Type in all cases: in vitro ADME
[1] = biological target: T1, CYP2C8 (Homo sapiens, UniProt P10632); assay: Incubation with human cDNA-expressed CYP2C8; details: CYP2C8, 30 min at 37 °C with NADPH; ETN101 10 μM or M1 1 μM
T1 construct: purchased Cypex Ltd. (Dundee, UK)
T1 sequence (P10632 1-490): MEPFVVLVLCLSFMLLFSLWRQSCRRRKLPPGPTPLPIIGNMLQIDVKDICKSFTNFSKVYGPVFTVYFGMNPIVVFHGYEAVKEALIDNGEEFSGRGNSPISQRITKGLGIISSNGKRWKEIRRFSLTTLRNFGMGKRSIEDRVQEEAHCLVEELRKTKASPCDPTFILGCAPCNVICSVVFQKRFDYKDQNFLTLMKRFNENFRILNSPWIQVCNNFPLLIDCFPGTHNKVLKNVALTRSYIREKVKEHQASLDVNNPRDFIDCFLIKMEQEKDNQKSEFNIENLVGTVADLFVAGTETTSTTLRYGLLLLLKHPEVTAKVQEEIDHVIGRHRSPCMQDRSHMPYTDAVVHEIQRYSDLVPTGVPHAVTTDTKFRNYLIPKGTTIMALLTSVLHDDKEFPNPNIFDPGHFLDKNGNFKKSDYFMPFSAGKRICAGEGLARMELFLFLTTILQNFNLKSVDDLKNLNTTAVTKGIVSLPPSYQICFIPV
Method: (§1) ETN101 or M1 was incubated with nine human cDNA-expressed CYP enzymes (1A2, 2A6, 2B6, 2C8, 2C9, 2C19, 2D6, 2E1, and 3A4) to identify the CYPs involved in the metabolism of ETN101. Based on the preliminary study, the incubation conditions were determined as follows: Briefly, reaction mixtures of 50 μL containing ETN101 (final concentration: 10 μM) or M1 (final concentration: 1 μM), and CYPs (final amount: 5 pmol for CYP1A2, 2A6, 2C8, 2C9, 2C19, 2D6, and 3A4; 10 pmol for CYP2B6 and 2E1) were prepared in 0.1 M potassium phosphate buffer. The reaction was initiated by adding 50 μL of NADPH- regenerating system; the mixtures were incubated for 0 min or 30 min at 37 °C in triplicate. Reactions were terminated by the addition of 100 μL of ice-cold acetonitrile containing the IS (camptothecin, 200 ng/mL). Samples were centrifuged at 13,000 rpm for 5 min at 4 °C. An aliquot of 2 μL supernatant was injected in LC–MS/MS system.
(§2) For enzyme characterization, an Agilent 6460 triple quadrupole mass spectrometer coupled with a 1260 HPLC system (Agilent Technologies, Santa Clara, CA, USA) and a Kinetex Halo® C18 column (2.7 μm, 2.1 × 50 mm, Advanced Material Technology, Wilmington, DE, USA) were used for chromatographic separation. […] ETN101, M1, and M2 were detected via MRM using ESI in the positive mode. […]

[2] = test system: monkey hepatocytes; assay: Metabolite characterization in monkey hepatocytes; details: monkey hepatocyte 1 h incubates of ETN101; ND:<1.2E+05 peak area
Method: (§3) We mixed 60 μL aliquots of 40 μM ETN101 in incubation medium and an equal volume of human, mouse, rat, dog, or monkey hepatocyte suspension in 96-well plates and incubated for 0 or 1 h in a CO2 incubator at 37 °C. The reactions were quenched by adding 120 µL of ice-cold acetonitrile to each well, and the cell suspension was sonicated for 5 min at 4 °C. Subsequently, centrifugation was carried out at 15,000× g for 10 min at 4 °C. Next, the supernatants were evaporated to dryness using a vacuum concentrator, and residues were re-dissolved in 70 μL of 30% acetonitrile. Each sample (5 μL aliquots) was analyzed using LC–HRMS system.
(§4) For metabolite characterization, a Vanquish HPLC system (Thermo Fisher Scientific, San José, CA, USA) coupled with a Q-Exactive Orbitrap mass spectrometer (Thermo Fisher Scientific Inc., Waltham, MA, USA) was used at Core Research Support Center for Natural Products and Medical Materials at Yeungnam University. […] The eluent from the column was directly injected into the mass spectrometer using a heated electrospray ionization (HESI) source in positive ionization mode. […] The spray voltage was 3.0 kV and the capillary temperature was 320 °C. Full scan MS^1 with a data-dependent MS^2 acquisition mode was applied to obtain MS^1 scan data ranging from m/z 80 to 900, at a resolution of 70,000, whereas data-dependent MS^2 spectra were acquired for the five most abundant peaks per cycle at a resolution of 35,000. The parallel reaction monitoring (PRM) mode was used to obtain the MS^2 spectra of putative metabolites detected at low peak intensities in the data-dependent MS^2 acquisition mode. Data were collected and interpreted using Thermo Scientific Xcalibur™ Software (Thermo Fisher Scientific).

[3] = biological target: T2, CYP2E1 (Homo sapiens, UniProt P05181); assay: Incubation with human cDNA-expressed CYP2E1; details: CYP2E1, 30 min at 37 °C with NADPH; ETN101 10 μM or M1 1 μM
T2 construct: purchased Corning Life Sciences (Woburn, MA, USA)
Method: as §1, §2

[4] = test system: human hepatocytes; assay: Metabolite characterization in human hepatocytes; details: human hepatocyte 1 h incubates of ETN101; ND:<1.2E+05 peak area
Method: as §3, §4

[5] = test system: mouse hepatocytes; assay: Metabolite characterization in mouse hepatocytes; details: mouse hepatocyte 1 h incubates of ETN101; ND:<1.2E+05 peak area
Method: as §3, §4

T2 sequence (P05181 whole entry): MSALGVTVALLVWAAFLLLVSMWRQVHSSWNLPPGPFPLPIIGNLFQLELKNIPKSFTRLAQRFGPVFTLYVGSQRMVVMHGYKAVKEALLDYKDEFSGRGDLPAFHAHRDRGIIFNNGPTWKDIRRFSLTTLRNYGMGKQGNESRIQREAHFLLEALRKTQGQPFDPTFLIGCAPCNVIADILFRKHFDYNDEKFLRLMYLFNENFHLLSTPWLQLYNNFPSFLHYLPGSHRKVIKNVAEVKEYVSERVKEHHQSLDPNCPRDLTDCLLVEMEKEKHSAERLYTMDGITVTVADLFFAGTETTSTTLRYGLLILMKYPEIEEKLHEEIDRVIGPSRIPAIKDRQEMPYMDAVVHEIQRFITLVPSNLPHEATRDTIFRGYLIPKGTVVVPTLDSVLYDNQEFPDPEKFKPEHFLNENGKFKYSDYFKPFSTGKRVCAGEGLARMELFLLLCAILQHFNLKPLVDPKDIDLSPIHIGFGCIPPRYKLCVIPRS

## NCC(N)C(=O)Nc1ccc(-c2nc3ccccc3s2)cc1 (stereo not shown) [ETN101, 2,3-diamino-N-(4-(benzo[d]thiazol-2-yl)phenyl)propanamide]
[1]
  Percentage remaining: 105.0%
[2]
  Relative peak area (%): 69.0%
[3]
  Percentage remaining: 81.1%
[4]
  Relative peak area (%): 76.4%
[5]
  Relative peak area (%): 26.8%

## Nc1ccc(-c2nc3ccccc3s2)cc1 [M1, 2-(4-aminophenyl)benzothiazole]
[1]
  Percentage remaining: 86.6%
[2]
  Relative peak area (%): 21.5%
[3]
  Percentage remaining: 97.3%
[4]
  Relative peak area (%): 21.0%
[5]
  Relative peak area (%): 71.8%
